The results in this text go back to patent publication US11478460B2, “Diaryl substituted 6,5-fused ring compounds as C5aR inhibitors” (CHEMOCENTRYX, INC., priority 2017, dated 2022).

A value given as a limit tells only on which side of the number the result lay.

For the assay, the target named is C5aR (Homo sapiens (Human), UniProt P21730). Nature of the assay: Chemotaxis assay using U937 cells (C5aR mediated migration). In kind it is cell-based. The note with it: read-out: Mig IC50. The method in brief: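 U937 monocytic cells, pretreated overnight with 0.5 mM cyclic AMP, placed at 100,000 cells in the upper well above 5 μm polycarbonate filters. Lower well held 0.03 nM C5a plus compound in HBSS/1% FBS; after 1.5 h at 37° C migrated cells counted directly or by CyQuant, giving IC50.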
C5aR, sequence (P21730 whole entry): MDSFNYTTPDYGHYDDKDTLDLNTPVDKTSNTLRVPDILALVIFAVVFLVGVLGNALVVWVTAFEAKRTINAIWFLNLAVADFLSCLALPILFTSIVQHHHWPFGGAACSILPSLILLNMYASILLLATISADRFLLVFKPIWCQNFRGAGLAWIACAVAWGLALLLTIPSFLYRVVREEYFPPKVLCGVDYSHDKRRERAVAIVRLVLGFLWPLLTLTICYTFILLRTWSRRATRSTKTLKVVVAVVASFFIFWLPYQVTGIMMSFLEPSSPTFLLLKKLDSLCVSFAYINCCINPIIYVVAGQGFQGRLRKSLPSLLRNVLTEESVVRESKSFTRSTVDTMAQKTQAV

Broadly, the IC50 is the concentration needed to halve the response being measured.

For the compound `Cc1cccc(OCC(C)C)c1-n1nc2c(c1-c1ccc(NC(N)=O)cc1)CN(C(=O)CCc1ccccc1)CC2` [Example 1.429], the half-maximal inhibitory concentration (IC50) is 50 to 500 nM. Turning to `Cc1cccc(OCC(C)C)c1-n1nc2c(c1-c1ccc(NC(N)=O)c(F)c1)CN(c1ncc(C(C)C)cc1F)CC2` [Example 1.218], the 50% inhibitory concentration (IC50) was ≤ 5 nM. In the case of `Cc1cccc(OCC(C)C)c1-n1nc2c(c1-c1ccc(NC(N)=O)c(F)c1)CN(C(C)C1CCCC1)CC2` (stereo not shown) [Example 1.254], the 50% inhibitory concentration (IC50) was ≤ 5 nM. With `CCc1cccc(CC)c1-n1nc2c(c1-c1cc(F)c(NC(N)=O)cc1F)CN(CC1CCOCC1)C(C)(C)C2` [Example 1.040], the IC50 was ≤ 5 nM. In the case of `Cc1cccc(OCC(C)C)c1-n1nc2c(c1-c1ccc(NC(N)=O)cc1)CN(c1ccc(F)cc1C(C)C)CC2` [Example 1.419] it was 5 to 50 nM; in that of `Cc1cccc(OCC(C)C)c1-n1nc2c(c1-c1ccc(NC(N)=O)cc1)CN(Cc1ccccc1C(C)C)CC2` [Example 1.390], 5 to 50 nM; in that of `Cc1cccc(C)c1-n1nc2c(c1-c1cc(F)c(NC(N)=O)cc1F)CN(C1(C)CCOCC1)CC2` [Example 1.078], 50 to 500 nM. On to `C=C(C)c1cnc(N2CCc3nn(-c4c(C)cccc4OCC(C)C)c(-c4ccc(NC(N)=O)c(F)c4)c3C2)c(F)c1` [Example 1.220], for which the IC50 was ≤ 5 nM. In the case of `COc1cc(NC(N)=O)c(F)cc1-c1c2c(nn1-c1c(C)cccc1C)CCN(c1ncc(Cl)cc1Cl)C2` [Example 1.123] it was ≤ 5 nM. As to `Cc1ccc(C(C)(C)O)nc1N1CCc2nn(-c3c(C)cccc3OCC(C)C)c(-c3ccc(NC(N)=O)cc3)c2C1` [Example 1.383], the IC50 lay in the range of 50 to 500 nM.

Take `CCc1cccc(CC)c1-n1nc2c(c1-c1cc(F)c(NC(N)=O)cc1F)CN(Cc1cccn(C)c1=O)CC2` [Example 1.041]: the 50% inhibitory concentration (IC50) is > 500 nM. For `CCc1cccc(CC)c1-n1nc2c(c1-c1cc(F)c(NC(N)=O)cc1F)CN(Cc1ccc(C(F)(F)F)cc1OC)CC2` [Example 1.058], the half-inhibitory concentration (IC50) was ≤ 5 nM. Regarding `CCc1cccc(CC)c1-n1nc2c(c1-c1ccc(NC(N)=O)cc1)CN(C(c1ccccc1C(F)(F)F)C(C)C)CC2` (stereo not shown) [Example 1.281], the 50% inhibitory concentration (IC50) was ≤ 5 nM. As to `CCc1cccc(CC)c1-n1nc2c(c1-c1ccc(NC(N)=O)c(F)c1)CN(C(CC)CC)CC2` [Example 1.219], the 50% inhibitory concentration (IC50) was 5 to 50 nM.

As to `CCc1cccc(CC)c1-n1nc2c(c1-c1cc(F)c(NC(N)=O)cc1F)CN(CC1CCOC1)CC2` (stereo not shown) [Example 1.020], the IC50 lay within 5 to 50 nM. Turning to `COc1cccc(C)c1-n1nc2c(c1-c1ccc(N)cc1)CN(c1ccccc1C(C)(C)C)CC2` [Example 1.459], the concentration for half-maximal inhibition (IC50) lay in the range of 5 to 50 nM. Consider `CCc1cccc(CC)c1-n1nc2c(c1-c1cc(F)c(NC(N)=O)cc1F)CN(Cc1ccc(Cl)cc1C(F)(F)F)CC2` [Example 1.076], for which the IC50 is ≤ 5 nM. With `CCC(C)(C)N1CCc2nn(-c3c(C)cccc3OCC(C)C)c(-c3cc(F)c(NC(N)=O)cc3F)c2C1` [Example 1.214], the IC50 is ≤ 5 nM.

In the case of `Cc1cccc(OCC(C)C)c1-n1nc2c(c1-c1ccc(NC(N)=O)cc1)CN(CC(C)C(F)(F)F)CC2` (stereo not shown) [Example 1.391], the IC50 is 5 to 50 nM. On to `CCCC(O)C(C)(C)N1CCc2nn(-c3c(CC)cccc3CC)c(-c3cc(F)c(NC(N)=O)cc3F)c2C1` (stereo not shown) [Example 1.090], for which the half-maximal inhibitory concentration (IC50) is ≤ 5 nM. In the case of `Cc1cccc(F)c1-n1nc2c(c1-c1ccc(N)cc1)CN(c1ccccc1C(C)C)CC2` [Example 1.464] it was 50 to 500 nM; in that of `CC(C)c1ccccc1-n1nc2c(c1-c1ccc(NC(N)=O)cc1)CN(C(=O)OC(C)(C)C)CC2` [Example 1.416], > 500 nM; in that of `Cc1cccc(OCC(C)C)c1-n1nc2c(c1-c1cc(F)c(NC(N)=O)cc1F)CN(C(C)(C)c1ccccc1)CC2` [Example 1.207], ≤ 5 nM.

For `Cc1cnc(N2CCc3nn(-c4c(C)cccc4OCC(C)C)c(-c4cc(F)c(NC(N)=O)cc4F)c3C2)nc1` [Example 1.158], the IC50 was ≤ 5 nM. In the case of `Cc1cccc(OCC(C)C)c1-n1nc2c(c1-c1ccc(NC(N)=O)cc1)CN(c1cc(C(C)(C)C)ccc1Cl)CC2` [Example 1.422] it was 5 to 50 nM.
